Read-outs that look alike come from different tables or passages of the source.
Columns and labels:
RORγt [1] = biological target: T1, RORγt (Homo sapiens, UniProt P51449); assay: Cofactor recruitment test (Alpha Screen, biotinylated SRC-1 peptide); assay type: biochemical; settings: read-out: Signal value inhibitory rate at test compound 1 μM (%)
T1 sequence (P51449 1-497 isoform P51449-2): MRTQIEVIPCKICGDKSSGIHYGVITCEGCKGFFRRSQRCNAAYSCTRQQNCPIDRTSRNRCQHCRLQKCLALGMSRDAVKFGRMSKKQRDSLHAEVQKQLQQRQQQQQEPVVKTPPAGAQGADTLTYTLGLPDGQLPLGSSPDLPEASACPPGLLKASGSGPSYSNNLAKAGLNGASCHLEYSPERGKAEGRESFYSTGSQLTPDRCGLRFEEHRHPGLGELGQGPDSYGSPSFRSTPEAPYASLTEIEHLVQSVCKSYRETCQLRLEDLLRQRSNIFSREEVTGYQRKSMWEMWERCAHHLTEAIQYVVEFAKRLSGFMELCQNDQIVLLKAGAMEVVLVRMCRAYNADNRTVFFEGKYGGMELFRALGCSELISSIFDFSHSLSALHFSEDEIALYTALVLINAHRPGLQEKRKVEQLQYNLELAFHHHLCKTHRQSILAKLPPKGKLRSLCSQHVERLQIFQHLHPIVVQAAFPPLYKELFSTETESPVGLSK
Protocol: Cofactor Recruitment Test
Cofactor recruitment test was performed by Alpha Screen (Histidine Detection Kit, PerkinElmer) method. First, a test compound was diluted with an assay buffer (50 mM Tris-HCl (pH 7.5), 50 mM KCl, 1 mM DTT, 0.1% BSA) and added to a 384 well plate by 5 μL. […] The mixture was stood in a dark place for 1 hr, and the signal value was measured by Envision (PerkinElmer).

RORγt [2] = biological target: T1, RORγt; assay: RORγt binding test using fluorescent-labeled synthetic ligand (TR-FRET); settings: read-out: Binding inhibitory rate of fluorescent-labeled synthetic ligand to RORγt at test compound 1 μM (%)
Outline: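 His-tagged RORγt (diluted to 240 nM) with compound, then fluorescent synthetic ligand (diluted to 12 μM), 20 min at room temperature, followed by Tb anti-His antibody (diluted to 8 nM), 20 min.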

RORγt [3] = biological target: T1, RORγt; assay: Jurkat reporter test (human IL-17 ROR response element luciferase, RORγt vector); assay type: cell-based; settings: read-out: Luminescence level inhibitory rate at test compound 3 μM (%)
Outline: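 Luminescence (Bright-Glo, 10 min, RT) was measured after overnight compound treatment of electroporated Jurkat cells (1350 V, 10 ms interval, 3 pulses). The reaction medium was RPMI with 10% lipid-reduced FCS, 10 mM HEPES (pH 7.5) and 5 μM lovastatin.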

RORγt [4] = biological target: T1, RORγt; assay: RORγt binding test using fluorescent-labeled cholesterol (TR-FRET); settings: read-out: Binding inhibitory rate of fluorescent-labeled cholesterol to RORγt at test compound 1 μM (%)
Outline: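 After 20 min at room temperature with His-tagged RORγt and BODIPY-cholesterol in pH 7.5 Tris buffer (NaCl, DTT, BSA), compound wells got terbium anti-His antibody for another 20 min. Time-resolved FRET was read with excitation 320 nm, emission 520 nm and a 100 µs delay.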

IL-17A gene expression = assay: Effect on IL-23-induced cytokine expression in mice; assay type: in vivo, Balb/c mice; settings: Mus musculus, 30 min before and 8 hr after IL-23, versus the negative control group, read-out: Percent inhibition of IL-17A gene expression; for inhibition in vivo at 10 mg/kg: dose 10 mg/kg oral; for inhibition in vivo at 30 mg/kg: dose 30 mg/kg oral
Protocol: Effect on IL-23-induced Cytokine Expression in Mice
A mouse IL-23 solution (500 ng/10 μL, prepared by Takeda Pharmaceutical Company Limited) or PBS (10 μL, negative control group) was administered intradermally in the ear of Balb/c mice (Charles River Japan, male, 7 weeks old). Twenty-four hr after administration, the ear was resected under isoflurane anesthesia. The test compound was suspended in 0.5% methylcellulose and administered orally 30 min before and 8 hr after IL-23 administration.
RNA extraction from the ear tissue and quantitative PCR were performed as follows. Specifically, ear tissue 5 mm in diameter was punched from an area of the resected ear centering on the IL-23 injection site, and the tissue was immersed in RNAlater (QIAGEN) for at least 18 hr. The RNAlater-treated ear tissue was homogenized in 350 μL of RLT buffer (RNeasy mini kit, QIAGEN) and treated (55° C., 10 min) with Proteinase K (QIAGEN). Total RNA was then extracted according to the RNeasy mini kit protocol. The RNA thus obtained was then reverse transcribed into cDNA using the High-Capacity RNA-to-cDNA kit (Applied Biosystems), and the amount of each cytokine expressions was measured by real-time PCR (Viia7™, Applied Biosystems). The PCR buffer used was TaqMan Fast Advanced Master Mix (Applied Biosystems), and TaqMan Gene Expression Assays (Applied Biosystems) Mm00439618 ml (IL-17A) and 4352341E (β-actin) were used for cytokine gene detection. The IL-17A gene expression level was normalized to the R-actin gene expression level, and the percent inhibition of IL-17A gene expression with the test compound was then calculated.
The results obtained with the above-described method (percent inhibition of IL-17A gene expression with oral administration of the test compound) are shown in Table 5.

[5] = system: IL-17 production in human blood; assay: Effect on IL-17 production in human blood; assay type: cell-based; settings: 72 h, 10 μM test compound, IL-23 and Dynabeads stimulation, 3 days, read-out: Percent Inhibition at 10 μM (IL-17 production)
Protocol: Effect on IL-17 Production in Human Blood
The inhibitory effect of the test compound on IL-17 production in human blood was evaluated as follows. First, 150 μL of peripheral blood collected from healthy individuals using heparinized vacuum blood collection tubes was dispensed into each well of a 96-well plate (Corning), and 45 μL of RPMI 1640 medium (Gibco) containing 10% fetal bovine serum (FBS, Hyclone) and 30 μL of the test compound diluted with the medium was added to each well. The plate was then cultured for 30 min at 37° C. Cells were subsequently stimulated by adding 30 μL of 100 ng/mL human IL-23 (R&D) and 45 μL of Dynabeads Human (Invitrogen) to each well and culturing the plate for 3 days at 37° C. In wells without stimulation, 75 μL of RPMI 1640 medium containing 10% FBS was added instead of the IL-23 and Dynabeads solution. After culturing for 3 days, the culture supernatant was collected, and the amount of IL-17 in the supernatant was measured using an IL-17 ELISA kit (R&D).
The results of the above-described measurements (percent inhibition of IL-17 production with 10 μM of the test compound) are shown in Table 4.

[6] = test compound 3 μM, Jurkat cells

Row | SMILES | inhibition at 1 µM (RORγt [1]) | inhibition at 1 µM (RORγt [2]) | inhibition at 10 µM [5] | inhibition in vivo at 10 mg/kg (IL-17A gene expression) | inhibition in vivo at 30 mg/kg (IL-17A gene expression) | inhibition at 3 µM (RORγt [3]; Jurkat) | other results
1 | COc1ccc2c(c1)CCN(C(=O)c1cc(O)no1)[C@H]2C(=O)Nc1cc(F)c2c(c1)CCC2(C)C [Example 68, (1R)-N-(7-fluoro-1,1-dimethyl-2,3-dihydro-1H-inden-5-yl)-2-((3-hydroxy-1,2-oxazol-5-yl)carbonyl)-6-methoxy-1,2,3,4-tetrahydroisoquinoline-1-carboxamide] | 73% | 101% |  |  |  |  | inhibition at 3 µM (RORγt [3]; [6]): 99%; inhibition at 1 µM (RORγt [4]): 103%; inhibition in vivo at 100 mg/kg (IL-17A gene expression; dose 100 mg/kg oral): 90%
2 | COc1ccc2c(c1)CCN(C(=O)CCCC(=O)O)[C@H]2C(=O)Nc1cc(F)c([Si](C)(C)C)c(F)c1 [Example 82, 5-((1R)-1-((3,5-difluoro-4-(trimethylsilyl)phenyl)carbamoyl)-6-methoxy-3,4-dihydroisoquinolin-2(1H)-yl)-5-oxopentanoic acid] |  |  | 75% | 85% |  |  | 
3 | COc1ccc2c(c1)CCN(C(=O)CCCC(=O)O)[C@H]2C(=O)Nc1cc(F)c(C(C)(C)C)c(F)c1 [Example 109, 5-((1R)-1-((4-tert-butyl-3,5-difluorophenyl)carbamoyl)-6-methoxy-3,4-dihydroisoquinolin-2(1H)-yl)-5-oxopentanoic acid] |  |  |  |  | 96% |  | 
4 | COc1ccc2c(n1)CCN(C(=O)CCCC(=O)O)[C@H]2C(=O)Nc1cc(F)c([Si](C)(C)C)c(F)c1 [Example 125, 5-((5R)-5-((3,5-difluoro-4-(trimethylsilyl)phenyl)carbamoyl)-2-methoxy-7,8-dihydro-1,6-naphthyridin-6(5H)-yl)-5-oxopentanoic acid] |  |  |  |  | 89% |  | 
5 | COc1ccc2c(c1)CCN(C(=O)CCCC(=O)O)[C@H]2C(=O)Nc1ccc([Si](C)(C)C)c(F)c1 [Example 135, 5-((1R)-1-((3-fluoro-4-(trimethylsilyl)phenyl)carbamoyl)-6-methoxy-3,4-dihydroisoquinolin-2(1H)-yl)-5-oxopentanoic acid] | 97% | 101% |  |  | 68% | 104% | inhibition at 1 µM (RORγt [4]): 102%
6 | COCc1ccc2c(c1)CCN(C(=O)CCCC(=O)O)[C@H]2C(=O)Nc1cc(F)c(C(C)(C)C)c(F)c1 [Example 144, 5-((1R)-1-((4-tert-butyl-3,5-difluorophenyl)carbamoyl)-6-(methoxymethyl)-3,4-dihydroisoquinolin-2 (1H)-yl)-5-oxopentanoic acid] | 97% | 101% | 86% |  |  |  | inhibition at 3 µM (RORγt [3]; [6]): 101%; inhibition at 1 µM (RORγt [4]): 101%
7 | COc1ccc2c(c1)CCN(C(=O)CCCC(=O)O)[C@H]2C(=O)Nc1cc(F)c2c(c1)CCC2(C)C [Example 176, 5-((1R)-1-((7-fluoro-1,1-dimethyl-2,3-dihydro-1H-inden-5-yl)carbamoyl)-6-methoxy-3,4-dihydroisoquinolin-2 (1H)-yl)-5-oxopentanoic acid] |  |  |  |  | 91% |  | 
8 | CCOc1ccc2c(c1)CCN(C(=O)CCCC(=O)O)[C@H]2C(=O)Nc1cc(F)c([Si](C)(C)C)c(F)c1 [Example 179, 5-((1R)-1-((3,5-difluoro-4-(trimethylsilyl)phenyl)carbamoyl)-6-ethoxy-3,4-dihydroisoquinolin-2(1H)-yl)-5-oxopentanoic acid] | 94% | 101% | 82% |  | 95% | 102% | 
9 | CCOc1ccc2c(c1)CCN(C(=O)CC[C@H](C)C(=O)O)[C@H]2C(=O)Nc1cc(F)c2c(c1)CCC2(C)C [Example 266, (2S)-5-((1R)-6-ethoxy-1-((7-fluoro-1,1-dimethyl-2,3-dihydro-1H-inden-5-yl)carbamoyl)-3,4-dihydroisoquinolin-2(1H)-yl)-2-methyl-5-oxopentanoic acid] |  |  | 88% |  |  |  | 
10 | COc1ccc2c(n1)CCN(C(=O)N1CC(CC(=O)O)C1)[C@H]2C(=O)Nc1cc(F)c2c(c1)CCC2(C)C [Example 273, (1-(((5R)-5-((7-fluoro-1,1-dimethyl-2,3-dihydro-1H-inden-5-yl)carbamoyl)-2-methoxy-7,8-dihydro-1,6-naphthyridin-6(5H)-yl)carbonyl)azetidin-3-yl)acetic acid] |  |  | 89% | 77% |  |  | 
11 | COc1ccc2c(c1)CCN(C(=O)N1CC(CC(=O)O)C1)[C@H]2C(=O)Nc1ccc([Si](C)(C)C)c(F)c1 [Example 279, (1-(((1R)-1-((3-fluoro-4-(trimethylsilyl)phenyl)carbamoyl)-6-methoxy-3,4-dihydroisoquinolin-2(1H)-yl)carbonyl)azetidin-3-yl)acetic acid] | 89% | 102% |  | 71% |  | 100% | 
12 | COc1ccc2c(n1)CCN(C(=O)N1CC(CC(=O)O)C1)[C@H]2C(=O)Nc1cc(F)c([Si](C)(C)C)c(F)c1 [Example 281, (1-(((5R)-5-((3,5-difluoro-4-(trimethylsilyl)phenyl)carbamoyl)-2-methoxy-7,8-dihydro-1,6-naphthyridin-6(5H)-yl)carbonyl)azetidin-3-yl)acetic acid] | 89% | 102% |  | 93% |  | 102% | 
